This is an account of results in patent publication US8524654B2, “Prolyl endopeptidase inhibitors for reducing or preventing neutrophilic inflammation” (The UAB Research Foundation, priority 2007, dated 2013).

“Also recorded” adds a separate entry of the source. Residues, ends and D or L forms follow the SMILES beside them. *: point of attachment. Cbz = O=C(OCc1ccccc1)*

For data set [1], the system named is PGP production by CF sputum on type I collagen. The data set can be described thus: Ex vivo collagen assay: PGP generation by pooled CF sputum with inhibitors. In kind it is biochemical, human. The protocol: (§1) Electrospray ionization liquid chromatography-MS/MS. (ESI-LC/MS/MS) for PGP detection PGP and N-α-PGP were measured for in vitro and sputum samples using a MDS Sciex (Applied Biosystems, Foster City, Calif.) API-4000 spectrometer equipped with a Shimadzu HPLC. HPLC was done using a 2.1×150-mm Develosi C30 column (with buffer A: 0.1% formic acid, and buffer B: acetonitrile plus 0.1% formic acid); at 0-0.6 min, 80% buffer A/20% buffer B and at 0.6-5 min, the gradient is up to 0% buffer A/100% buffer B. Background was removed by flushing with 100% isopropanol plus 0.1% formic acid. Positive electrospray mass transitions were at 270-70 and 270-116 for PGP and 312-140 and 312-112 for N-α-PGP.
Ex vivo collagen assay. One hundred microliters of saline-diluted sputum was incubated with extensively dialyzed, intact type I or II collagen (50 μl, 1 mg/ml) for 24 h at 37° C. and 5% CO2. The samples were filtered through a 10-kDa filter, washed with 20 μl of 1 N HCl, and analyzed using ESI-LC-MS/MS for levels of PGP and N-αPGP. Amounts of PGP and N-α-PGP generated by each sputum sample were determined by subtracting basal levels already present in each sample.
For the inhibitor experiments, these pooled sputa were treated with noted inhibitor and allowed to incubate for 6 h. At 6 h, dialyzed collagen was added to the sample and sample was further incubated for 18 h. Inhibitor concentrations used were: MMP-8, -9, and -2 at 50 μM, PE at 100 μM, and doxycycline at 1 mM.

The test system of another data set is neutrophil. The settings on record: in vitro; cited from earlier work.
In data set [2] the test system is PGP production in murine airways. The data set can be described thus: In vivo murine intratracheal protease administration, PGP in bronchoalveolar lavage fluid. More on the design: species or system BALB/c mice. The settings on record: 50 μl, lavage 24 h later, ESI LC-MS/MS, vs PBS control. The protocol: In vivo PGP production was examined using MMPs or human neutrophil elastase (HNE) with or without PE. Various proteases (50 μl) were administered intratracheally into murine (4- to 6-wk-old BALB/c mice) airways and bronchoalveolar lavage fluid was collected 24 h later. PGP levels were determined using ESI LC-MS/MS. […] Number of mice per group=6.
as §1
In vivo murine administration. Mice underwent intratracheal protease administration as described in FIG. 5 legend. MMPs were preactivated using 1 mM aminophenylmercuric acetate for 2 hours at 37° C. The concentrations of proteases administered were: MMP-8, MMP-9, and MMP-12: 55.6 μg/kg; HNE: 200 μg/kg; and PE: 18.4 mg/kg. […]

Take `CC(C)(C)C(=O)Oc1ccc(S(=O)(=O)Nc2ccccc2C(=O)NCC(=O)O)cc1` [HNE-specific inhibitor, N-(2-(4-(2,2-dimethylpropionyloxy)phenylsulfonylamino)benzoyl)aminoacetic acid N-(o-(p-pivaloyloxybenzene)sulfonylaminobenzoyl) glycine]: the “inhibition of PGP production compared with CF sputum alone” value in data set [1] (HNE inhibitor, concentration not given, pooled CF sputum, type I collagen) was “minimal effects; also recorded: Neither MMP-2-nor HNE-specific inhibitors resulted in significant changes”.

With `CCCCCCCC/C=C\CCCCCCCC(=O)NO` [MMP-2-specific inhibitor, cis-9-octadecenoyl-N-hydroxylamide], the “inhibition of PGP production compared with CF sputum alone” value in data set [1] (MMP-8, -9, -2 inhibitors at 50 μM, 6 h with pooled CF sputum, then type I collagen, 50 µM) is on record as “minimal effects; also recorded: Neither MMP-2-nor HNE-specific inhibitors resulted in significant changes”.

As for `O=CC1CCCN1C(=O)C1CCCN1C(=O)OCc1ccccc1` (stereo not drawn) [PE inhibitor, Z-prolyl prolinal] (Cbz-Pro-Pro-aldehyde; configuration not given here), in data set [1] (PE inhibitor at 100 μM, 6 h with pooled CF sputum, then type I collagen, 100 µM), the “inhibition of PGP production compared with CF sputum alone” value was “completely blocked; also recorded: complete blockade”.

Consider proline-glycine-proline [PGP], for which, in the data set on neutrophil, the “potency as neutrophil chemoattractant relative to N-α-PGP” value is given as “four to seven times less potent”.

B1: HNE: Recombinant human neutrophil elastase (protein, UniProt P08246 30-267, looked up)
Neutrophil elastase: IVGGRRARPHAWPFMVSLQLRGGHFCGATLIAPNFVMSAAHCVANVNVRAVRVVLGAHNLSRREPTRQVFAVQRIFENGYDPVNLLNDIVILQLNGSATINANVQVAQLPAQGRRLGNGVQCLAMGWGLLGRNRGIASVLQELNVTVVTSLCRRSNVCTLVRGRQAGVCFGDSGSPLVCNGLIHGIASFVRGGCASGLYPDAFAPVAQFVNWIDSIIQRSEDNPCPHPRDPDPASRTH
Take B1: the “PGP production in bronchoalveolar lavage fluid” value in data set [2] is “did not generate PGP”.
